Experimental data taken from US8975441B2, “Process for preparing 2.2-dibromomalonamide” (Dow Global Technologies LLC, priority 2009, dated 2015).

Format: physicochemical
Details: pH 7
Text: It has been discovered and is believed that the alkali earth metal base, which in some embodiments is part of the nitrile-amide-conversion composition, acts at basic pH values (i.e., at pH values greater than pH 7.0) to undesirably promote degradation of 2,2-dibromo-3-cyanoacetamide to undesirable products. […] As pH of the nitrile-amide-conversion composition becomes increasingly basic, the alkali earth metal base degrades increasing amounts of 2,2-dibromo-3-cyanoacetamide. This base-promoted degradation of 2,2-dibromo-3-cyanoacetamide is especially prevalent at pH 9.0 and higher. The invention process advantageously maintains pH of the reaction mixture in situ during conversion of 2,2-dibromo-3-cyanoacetamide to 2,2-dibromomalonamide in a pH range that minimizes or prevents base-promoted degradation of 2,2-dibromo-3-cyanoacetamide while at the same time facilitates the base-catalyzed conversion thereof to 2,2-dibromomalonamide.

NC(=O)C(Br)(Br)C(N)=O [2,2-dibromomalonamide]
stability relative to 2,2-dibromo-3-cyanoacetamide: ≥ 10 times
